For series [1] the following is noted: cited from earlier work.
The nature of series [2]: Lacosamide plasma pharmacokinetics, ER infusion vs IP bolus in rats (Example 15). Type of series: in vivo. The following applies: for Slope (rate of rise of plasma concentration): from initiation of drug administration; for Tmax: read-out: median Tmax; for AUC(0-t): read-out: AUC0-18.
For series [3], the system named is motor coordination in mice. Kind of series: Rotarod test in mice, PD phase (Example 12). It is filed as in vivo. Here is the method:
The rotarod (Ugo Basile, […]) is a device that allows for quantitative measurement of motor coordination in rodents. Animals are pre-trained prior to testing on the rotarod.
24 hours prior to the test day, mice are trained to run on the accelerating rotarod for at least 120 s in two consecutive trials. The mice are given up to 12 trials to achieve this performance criterion. Any mice not meeting this criterion are excluded from the test study.
Mice are randomized to treatment groups (vehicle; IV: 3, 10 30 mg/kg; PO: 10, 30, 90 mg/kg). On the day of the test, the animals are dosed with test article and placed on the rotarod 5 minutes post-dosing. The rotarod is accelerated from 0-40 rpm over a 5 minute session, using the built-in function of the equipment. The rotarod test is repeated for each mouse at 15, 30 and 60 minutes post-drug administration. Animals that stay on the rotarod are assigned a run-time of 300 seconds. The time that each animal stays on the rotarod prior to falling is automatically recorded as the animal's fall latency.
The latency to fall time on the rotarod recorded for each animal is reported at each time point post-dose. Latency to fall is averaged (±SEM) across the 10 animals in each treatment group at each time point.
Background: Falling from the rotarod earlier than controls is read as motor impairment.

For series [4] the following is noted: aqueous systems; cited from earlier work.
A short description of series [5]: PK phase, single IV or PO dose of lacosamide in mice (Example 12). Type of series: in vivo, male CD-1 mice. The following applies: male, CD-1, mouse, plasma. The text has this:
For the PK phase, male CD-1 mice were assigned to treatment groups according to the study design in Table Ex 12 below. IV dosing was done via tail vein injection and oral delivery was done with oral gavage tube.

The subject of series [6] is motor coordination in rats. Kind of series: Rotarod, IR vs ER subcutaneous infusion profile in rats (Example 14). Conditions: at Cmax. Type of series: in vivo. Here is the method: The example investigates reducing the rate of rise of plasma concentrations with the ER profile compared to the IR profile results in reduced CNS impairment. CNS side effects are measured as an impairment of motor coordination in rodents using the rotarod. Performance of rodents in a battery of neurobehavioral tests conducted during the infusion period are used as secondary endpoints as measures of CNS impairment.
The infusion protocols are designed to produce pharmacokinetic profiles of lacosamide similar to that of IR lacosamide administered twice-a-day (BID) to humans (IR profile) or an extended release profile administered once-a-day (QD) to humans (ER profile) at varying doses administered as IR BID or ER QD.
Rats are pre-trained on the rotarod prior to testing and assigned to groups based on their body weights.
Following the period of acclimation, rats are surgically implanted with subcutaneous programmable pumps (iPRECIO), per the manufacturer's instructions. […]
On the test day at the specified time point, rats are placed on the rotarod and the rotarod is accelerated from 0-40 rpm over a 5 minute session, using the built-in function of the equipment. […] The time that each animal stays on the rotarod prior to falling is automatically recorded as the animal's fall latency. […]

The subject of series [7] is motor coordination in rats. Put plainly: Rotarod, ER profile vs IR profile of lacosamide in rats (Example 15). Type of series: in vivo. How it is done: It is hypothesized that reducing the rate of rise of plasma concentrations with the ER profile compared to the IR profile results in reduced CNS impairment. CNS side effects were measured as an impairment of motor coordination in rodents using the rotarod. The rotarod (Ugo Basile, Italy) is a device that allows for quantitative measurement of motor coordination in rodents. Animals experiencing CNS side effects such as dizziness would fall off the rotarod faster than normal animals.
An acceleration protocol was used for training and test sessions, wherein the rotarod was accelerated from 0-40 rpm over a 5 minute session. All rats were then surgically implanted subcutaneously with programmable pumps (iPRECIO, Durect Corporation, Cupertino, Calif.), per the manufacturer's instructions, under anesthesia and using aseptic techniques.
Three days following pump implantation surgery, all rats were tested on the rotarod to obtain baseline performance values. Rats were assigned to treatment groups such that the mean time spent on the rotarod was similar for each group. Four groups of rats were utilized in this study, with 8-10 rats per group:
The total pump infusion duration was 18 hours. Control animals (group 1) were infused with vehicle (20% N-methyl-2-pyrrolidone, NMP) using the same infusion protocol. […] Control animals (group 3) were implanted with pumps containing vehicle and were given an IP bolus of vehicle.
Immediately following the 18 hour pump infusion for the ER groups, or 1 hour after IP injection for the IR groups, rats were placed on the rotarod and the rotarod was accelerated from 0-40 rpm over a 5 minute session, using the built-in function of the equipment. Animals that stayed on the rotarod for the entire session were assigned a run-time of 300 seconds. The time that each animal stayed on the rotarod prior to falling was automatically recorded.

The conditions of series [8]: cited from earlier work. The source holds these as a separate data set.

The structures appear in SMILES notation. Read-outs that look alike come from different tables or passages of the source. A value given as a limit tells only on which side of the number the result lay.

Consider `C=CC(N)CCC(=O)O` (racemic) [vigabatrin, (RS)-4-aminohex-5-enoic acid], for which, in series [1] (at steady state), the Cmax was 61000 ng/mL and the T1/2 is 7.5 h. Besides, the “elimination / plasma / pharmacokinetic half-life” value in series [1] (human) is “about 10 hours”. In addition, the Tmax entry in series [1] (oral dosing, human) is on record as “approximately 1 hours”.

Take `NC(=O)N1c2ccccc2CC(O)c2ccccc21` (stereo not shown) [MDH, 10-monohydroxy metabolite]: in series [1] (human), the “elimination / plasma / pharmacokinetic half-life” value was 9 h.

Regarding `CC(=O)N[C@H](CO)C(=O)NCc1ccccc1` [O-desmethyl metabolite], the “reduction of concentrations and amount excreted into urine” value in series [1] (CYP2C19 poor metabolizers compared to extensive metabolizers) is listed as “about 70%”. Further, the “elimination / plasma / pharmacokinetic half-life” value in series [1] (human) was 15 to 23 h. Moreover, the Tmax in series [1] (oral dosing, human) is 0.5 to 12 h.

`CCCC(CCC)C(=O)O` [divalproex sodium]: the “elimination / plasma / pharmacokinetic half-life” value in series [1] (human) is “about 15 hours”.

Turning to `COC[C@@H](NC(C)=O)C(=O)NCc1ccccc1` [lacosamide, R-2-acetamido-N-benzyl-3-methoxypropionamide], the “Slope (rate of rise of plasma concentration)” value in series [2] (Group 2 (ER)) worked out at 1.4 µg/mL/h; in series [2] (Group 4 (IR)), 62 µg/mL/h. Also, in series [2] (PK satellite rats), the “reduction in the rate of the rise (slope) ER compared to IR” value was 98%. In addition, the Tmax was 0.75 h in series [2] (rat, plasma, 19 mg/kg, IP bolus, IR profile (Group 4), PK satellite rats); 15 h in series [2] (rat, plasma, ip, 122 mg/kg, ER infusion protocol (Group 2), PK satellite rats); less than 0.0833 h in series [5] (IV route); approximately 0.25 h in series [5] (oral route). The molecule further yielded a concentration at 1 h in series [2] (rat, plasma, intraperitoneal, 19 mg/kg, group 4 (IR profile)) of approximately 19000 ng/mL. The molecule further returned a concentration at 18 h in series [2] (rat, plasma, intraperitoneal, 122 mg/kg, group 2 (ER profile)) of approximately 19000 ng/mL. For the same molecule, the Cmax in series [2] (rat, plasma, ip, 19 mg/kg, Group 4 (IR), PK satellite rats) is 22000 ng/mL; in series [2] (rat, plasma, ip, 122 mg/kg, Group 2 (ER), PK satellite rats) it was 19000 ng/mL; in series [5] (90 mg/kg oral dose), approximately 40000 ng/mL; in series [5] (single 10 mg/kg IV dose), approximately 15000 ng/mL; in series [5] (single 30 mg/kg IV dose), approximately 40000 ng/mL; in series [5] (single 30 mg/kg oral dose), approximately 15000 ng/mL. In addition, the AUC(0-t) was found to be 18 µg·h/mL in series [2] (rat, plasma, ip, 19 mg/kg, Group 4 (IR)) and 217 µg·h/mL in series [2] (rat, plasma, ip, 122 mg/kg, Group 2 (ER), 18 hour infusion). Further, the “latency to fall, PO compared to IV” value in series [3] (doses with equivalent Cmax but different Tmax (e.g. 30 mg/kg IV and 90 mg/kg PO)) is recorded as “greater latency to fall on the rotarod (less impairment)”. In addition, the “effect of an increase in dose on latency to fall” value in series [3] (same route of administration (IV or PO)) is listed as “decrease in the latency to fall time on the rotarod”. Besides, the solubility entry in series [4] is reported as “about 20 mg/ml”. Further, the “elimination / plasma / pharmacokinetic half-life” value in series [1] (human) is “about 13 hours”. The “effect of CYP2C19 polymorphism on the pharmacokinetics” value in series [1] (in vivo) was “no significant effect”. Besides, in series [6] (given dose level), the “time spent on the rotarod, IR profile compared to ER group” value is on record as “significantly reduced time spent on the rotarod (i.e. greater impairment)”. Moreover, in series [6] (given infusion protocol, 400 vs 800 mg/day HED), the “time spent on the rotarod vs dose” value was “decrease in a dose-dependent manner”. The “percent change from baseline in time on the rotarod vs vehicle” value in series [7] (ER groups, p>0.05) is “not statistically different”. In addition, the “increase in time on the rotarod from baseline” value in series [7] (ER profile (group 2), vehicle 27% increase) was determined as 45%. Also, in series [7] (IR profile, IP bolus (group 4), vehicle 54% increase), the “reduction in time on the rotarod from baseline” value is on record as 55%.

Turning to `CC[C@@H](C(N)=O)N1CCCC1=O` [levetiracetam, (S)-alpha-ethyl-2-oxo-pyrrolidine acetamide], the Tmax result in series [1] (fasted subjects) is listed as “approximately one”. For the same molecule, the “elimination / plasma / pharmacokinetic half-life” value in series [1] (human) is “about 7 hours”; in series [1] (human, listed as Levetiracetam) it was 6 to 8 h. The AUC0-24 in series [1] (in vivo) is 300 to 350 µg·h/mL. Further, in series [1] (mostly unmetabolized form), the renal excretion rate was 0.6 mL/min/kg. Also, the patients reporting somnolence entry in series [8] (4000 mg daily, untitrated study) is “Approximately 45%”. Also, in series [8] (compared to 8% with placebo), the patients with somnolence is 14.8%.

In the case of `NC(=O)N1c2ccccc2CC(=O)c2ccccc21` [oxcarbazepine, 10,11-dihydro-10-oxo-5H-dibenz(b,f)azepine-5-carboxamide], in series [1] (600 mg IR BID), the AUC0-24 is 16.8 µg·h/mL and the Cmax is 2720 ng/mL. For the same molecule, the “elimination / plasma / pharmacokinetic half-life” value in series [1] (human) is listed as “about 20 hours”. In addition, the “elimination / plasma / pharmacokinetic half-life” value in series [1] (human, listed as Oxcarbazepine) is listed as “approximately 2 hours”. Besides, in series [1] (oral dosing, human), the Tmax entry is “approximately 3 hours”.

As for `CCCC(CCC)C(=O)O` [valproic acid, 2-propylpentanoic acid], the “elimination / plasma / pharmacokinetic half-life” value in series [1] (human) was 9 to 16 h.

One may read the Cmax as the maximum level reached in the sampled fluid or tissue. Usually Tmax stands for the time at which the peak concentration occurs.

These data come from patent US10987324B2, “Methods and compositions for the treatment of seizure-related disorders” (Adamas Pharmaceuticals, Inc., priority 2015, dated 2021).
